Measured values taken from publication PMC6195125 (European journal of medicinal chemistry, 2018).
Like-named read-outs stand apart in the source and are kept apart here.

Columns and labels:
P. falciparum 3D7 = type: cell-based; conditions: Plasmodium falciparum, 3D7, read-out: P.falciparum IC50 Pf3D7
P. falciparum Dd2 = assay: microbe, parasite or virus in culture; type: cell-based; conditions: Plasmodium falciparum, DD2, read-out: P.falciparum IC50 PfDd2
[1] = tested on: P. berghei exo-erythrocytic forms (EEF); type: cell-based, Plasmodium berghei; conditions: read-out: Pb EEF IC50; P. berghei-Luc in HepG2-A16-CD81EGFP cells, 48 h
[2] = tested on: P. falciparum stage V gametocytes; assay: ATP bioluminescence assay, mature gametocytes; type: cell-based, Plasmodium falciparum; conditions: read-out: Pf stage V gametocytes IC50
HepG2-A16-CD81EGFP cells = assay: HepG2 cytotoxicity bioluminescence assay; type: cell-based, human; conditions: read-out: HepG2 IC50
mammalian cell = conditions: read-out: Cytotoxicity IC50; cited from earlier work
P. falciparum = conditions: read-out: P. falciparum IC50; in vitro; cited from earlier work
[3] = tested on: normal human neonatal foreskin fibroblasts (NFFs); assay: Cytotoxicity against neonatal foreskin fibroblasts; type: cell-based; conditions: Fibroblast, read-out: NFF IC50
[4] = tested on: P. falciparum NF54 late stage gametocytes (IV-V); assay: Imaging-based viability assay, late stage gametocytes; type: cell-based; conditions: Plasmodium falciparum, NF54, read-out: Pf LSG inhibition at 40 μM

CCN(CC)CCCC(C)Nc1ccnc2cc(Cl)ccc12 (centres unmarked) [CQ, chloroquine]
IC50 (P. falciparum 3D7): 11 nM
IC50 (P. falciparum Dd2): 49 nM

Methyl 4-((3,5-dimethyl-N-(2-oxo-2-(p-tolylamino)ethyl)benzamido)methyl)benzoate [Compound 1m]
IC50 [1]: 5550 nM
IC50 ([2]; ATP assay, 48 h incubation): 10100 ± 3720 nM
IC50 (HepG2-A16-CD81EGFP cells; Table 4): 21400 nM
IC50 (HepG2-A16-CD81EGFP cells; Table 7 and text, 48 h): 21400 nM

O=C(/C=C/c1cccc(S(=O)(=O)Nc2ccccc2)c1)NO [Belinostat]
IC50 (mammalian cell): 1420 to 2370 nM
IC50 (P. falciparum): 60 to 130 nM

O=C1C(O)=C([C@H]2CC[C@H](c3ccc(Cl)cc3)CC2)C(=O)c2ccccc21 [ATQ, Atovaquone]
IC50 (HepG2-A16-CD81EGFP cells; Homo sapiens, HepG2, 48 h): > 500 nM

CN(C)c1ccc2nc3ccc(N(C)C)cc3[s+]c2c1 [methylene blue]
IC50 ([2]; Plasmodium falciparum, 48 h): 210000 nM

Cc1ccc(NC(=O)CN(Cc2ccc(C(=O)NO)cc2)C(=O)c2cccc3ccccc23)cc1 [Compound 1k]
IC50 [3]: > 10000 nM

CCC(=O)CCCCC[C@@H]1NC(=O)[C@H]2CCCCN2C(=O)[C@H]([C@@H](C)CC)NC(=O)[C@H](Cc2cn(OC)c3ccccc23)NC1=O [Apicidin]
IC50 (mammalian cell): 50 to 100 nM
IC50 (P. falciparum): 200 nM

Cc1[nH]c2ccccc2c1CCNCc1ccc(/C=C/C(=O)NO)cc1 [Panobinostat]
IC50 (mammalian cell): 70 to 180 nM
IC50 (P. falciparum): 10 to 30 nM

CC(/C=C/C(=O)NO)=C\[C@@H](C)C(=O)c1ccc(N(C)C)cc1 [Trichostatin A (TSA), Trichostatin A]
IC50 (P. falciparum): 8 to 11 nM

O=C(CN(Cc1ccc(C(=O)NO)cc1)C(=O)c1cccc2ccccc12)NC1CCCCC1 [Compound 1g]
inhibition at 40 µM [4]: 97%
